≈ marks a conversion by molar mass, not a printed value. Calls of active or inactive are those of the source. The calls are words filed in the database; no cut-off is given here.
Tests used:
[1] = test system: Candida orthopsilosis; experiment: Antifungal activity against Candida orthopsilosis clinical isolate bloodstream form assessed as time required for 50% reduction in fungal growth at 1 mg/L by time-kill assay; format: functional
[2] = test system: Candida parapsilosis; experiment: Antifungal activity against Candida parapsilosis clinical isolate bloodstream form assessed as time required for 99% reduction in fungal growth at 1 mg/L by time-kill assay; format: functional
[3] = test system: Candida metapsilosis; experiment: Antifungal activity against Candida metapsilosis clinical isolate bloodstream form assessed as time required for 99.9% reduction in fungal growth at 0.25 mg/L by time-kill assay; format: functional
[4] = test system: Candida metapsilosis; experiment: Antifungal activity against Candida metapsilosis clinical isolate bloodstream form assessed as time required for 50% reduction in fungal growth at 1 mg/L by time-kill assay; format: functional
[5] = test system: Candida parapsilosis; experiment: Antifungal activity against Candida parapsilosis clinical isolate bloodstream form assessed as time required for 50% reduction in fungal growth at 32 mg/L by time-kill assay; format: functional
[6] = test system: Candida orthopsilosis; experiment: Antifungal activity against Candida orthopsilosis clinical isolate bloodstream form assessed as time required for 99% reduction in fungal growth at 32 mg/L by time-kill assay; format: functional
[7] = test system: Candida orthopsilosis; experiment: Fungicidal activity against Candida orthopsilosis isolate ATC194 bloodstream form by CLSI method; format: functional; details: Lodderomyces orthopsilosis, isolate ATC-194
[8] = test system: Candida metapsilosis; experiment: Antifungal activity against Candida metapsilosis clinical isolate bloodstream form assessed as time required for 50% reduction in fungal growth at 0.25 mg/L by time-kill assay; format: functional
[9] = test system: Candida orthopsilosis; experiment: Antifungal activity against Candida orthopsilosis clinical isolate bloodstream form assessed as time required for 99% reduction in fungal growth at 4 mg/L by time-kill assay; format: functional
[10] = test system: Candida metapsilosis; experiment: Fungicidal activity against Candida metapsilosis isolate ATC193 bloodstream form by CLSI method; format: functional; details: Lodderomyces metapsilosis, isolate ATC-193
[11] = test system: Candida parapsilosis; experiment: Antifungal activity against Candida parapsilosis clinical isolate bloodstream form assessed as induction of fungal killing rate at 0.03 to 32 mg/L measured at 6 hrs by time-kill assay; format: functional, organism-based
[12] = test system: Candida metapsilosis; experiment: Fungicidal activity against Candida metapsilosis isolate CP-133 bloodstream form by CLSI method; format: functional; details: Lodderomyces metapsilosis
[13] = test system: Candida metapsilosis; experiment: Antifungal activity against Candida metapsilosis clinical isolate bloodstream form assessed as time required for 50% reduction in fungal growth at 32 mg/L by time-kill assay; format: functional
[14] = test system: Candida orthopsilosis; experiment: Fungicidal activity against Candida orthopsilosis isolate CP-131 bloodstream form by CLSI method; format: functional; details: Lodderomyces orthopsilosis
[15] = test system: Candida orthopsilosis; experiment: Antifungal activity against Candida orthopsilosis clinical isolate bloodstream form assessed as time required for 99% reduction in fungal growth at 16 mg/L by time-kill assay; format: functional
[16] = test system: Candida metapsilosis; experiment: Antifungal activity against Candida metapsilosis clinical isolate bloodstream form assessed as time required for 99% reduction in fungal growth at 4 mg/L by time-kill assay; format: functional
[17] = test system: Candida orthopsilosis; experiment: Antifungal activity against Candida orthopsilosis clinical isolate bloodstream form assessed as time required for 90% reduction in fungal growth at 1 mg/L by time-kill assay; format: functional
[18] = test system: Candida metapsilosis; experiment: Antifungal activity against Candida metapsilosis clinical isolate bloodstream form assessed as time required for 99.9% reduction in fungal growth at 4 mg/L by time-kill assay; format: functional
[19] = test system: Candida metapsilosis; experiment: Antifungal activity against Candida metapsilosis clinical isolate bloodstream form assessed as time required for 99% reduction in fungal growth at 0.25 mg/L by time-kill assay; format: functional
[20] = test system: Candida orthopsilosis; experiment: Fungicidal activity against Candida orthopsilosis isolate CP-151 bloodstream form by CLSI method; format: functional; details: Lodderomyces orthopsilosis
[21] = test system: Candida metapsilosis; experiment: Antifungal activity against Candida metapsilosis clinical isolate bloodstream form assessed as time required for 50% reduction in fungal growth at 4 mg/L by time-kill assay; format: functional
[22] = test system: Candida metapsilosis; experiment: Antifungal activity against Candida metapsilosis clinical isolate bloodstream form assessed as time required for 99.9% reduction in fungal growth at 16 mg/L by time-kill assay; format: functional
[23] = test system: Candida parapsilosis; experiment: Antifungal activity against Candida parapsilosis clinical isolate bloodstream form assessed as time required for 99.9% reduction in fungal growth at 4 mg/L by time-kill assay; format: functional
[24] = test system: Candida metapsilosis; experiment: Antifungal activity against Candida metapsilosis clinical isolate bloodstream form assessed as time required for 99% reduction in fungal growth at 1 mg/L by time-kill assay; format: functional
[25] = test system: Candida orthopsilosis; experiment: Antifungal activity against Candida orthopsilosis clinical isolate bloodstream form assessed as time required for 90% reduction in fungal growth at 32 mg/L by time-kill assay; format: functional
[26] = test system: Candida orthopsilosis; experiment: Antifungal activity against Candida orthopsilosis clinical isolate bloodstream form assessed as time required for 50% reduction in fungal growth at 4 mg/L by time-kill assay; format: functional
[27] = test system: Candida metapsilosis; experiment: Antifungal activity against Candida metapsilosis clinical isolate bloodstream form assessed as time required for 99.9% reduction in fungal growth at 32 mg/L by time-kill assay; format: functional
[28] = test system: Candida metapsilosis; experiment: Antifungal activity against Candida metapsilosis clinical isolate bloodstream form assessed as time required for 90% reduction in fungal growth at 16 mg/L by time-kill assay; format: functional
[29] = test system: Candida parapsilosis; experiment: Antifungal activity against Candida parapsilosis clinical isolate bloodstream form assessed as time required for 90% reduction in fungal growth at 0.25 mg/L by time-kill assay; format: functional
[30] = test system: Candida parapsilosis; experiment: Antifungal activity against Candida parapsilosis clinical isolate bloodstream form assessed as time required for 99% reduction in fungal growth at 4 mg/L by time-kill assay; format: functional
[31] = test system: Candida parapsilosis; experiment: Antifungal activity against Candida parapsilosis clinical isolate bloodstream form assessed as time required for 50% reduction in fungal growth at 4 mg/L by time-kill assay; format: functional
[32] = test system: Candida parapsilosis; experiment: Antifungal activity against Candida parapsilosis clinical isolate bloodstream form assessed as time required for 50% reduction in fungal growth at 0.25 mg/L by time-kill assay; format: functional
[33] = test system: Candida orthopsilosis; experiment: Antifungal activity against Candida orthopsilosis clinical isolate bloodstream form assessed as time required for 90% reduction in fungal growth at 4 mg/L by time-kill assay; format: functional
[34] = test system: Candida parapsilosis; experiment: Antifungal activity against Candida parapsilosis clinical isolate bloodstream form assessed as time required for 90% reduction in fungal growth at 4 mg/L by time-kill assay; format: functional
[35] = test system: Candida parapsilosis; experiment: Fungicidal activity against Candida parapsilosis isolate CP-302 bloodstream form by CLSI method; format: functional; details: Lodderomyces parapsilosis
[36] = test system: Candida parapsilosis; experiment: Antifungal activity against Candida parapsilosis clinical isolate bloodstream form assessed as time required for 99% reduction in fungal growth at 0.25 mg/L by time-kill assay; format: functional
[37] = test system: Candida parapsilosis; experiment: Fungicidal activity against Candida parapsilosis ATCC 22019 bloodstream form by CLSI method; format: functional; details: Lodderomyces parapsilosis
[38] = test system: Candida orthopsilosis; experiment: Antifungal activity against Candida orthopsilosis clinical isolate bloodstream form assessed as time required for 99.9% reduction in fungal growth at 16 mg/L by time-kill assay; format: functional
[39] = test system: Candida parapsilosis; experiment: Antifungal activity against Candida parapsilosis clinical isolate bloodstream form assessed as time required for 50% reduction in fungal growth at 1 mg/L by time-kill assay; format: functional
[40] = test system: Candida parapsilosis; experiment: Antifungal activity against Candida parapsilosis clinical isolate bloodstream form assessed as inhibition of fungal regrowth at 0.03 to 32 mg/L after 6 hrs by time-kill assay; format: functional, organism-based
[41] = test system: Candida orthopsilosis; experiment: Antifungal activity against Candida orthopsilosis clinical isolate bloodstream form assessed as time required for 90% reduction in fungal growth at 16 mg/L by time-kill assay; format: functional
[42] = test system: Candida orthopsilosis; experiment: Antifungal activity against Candida orthopsilosis clinical isolate bloodstream form assessed as mild induction of fungal death at 0.03 to 32 mg/L after 6 hrs by time-kill assay; format: functional, organism-based
[43] = test system: Candida orthopsilosis; experiment: Antifungal activity against Candida orthopsilosis clinical isolate bloodstream form assessed as time required for 50% reduction in fungal growth at 0.25 mg/L by time-kill assay; format: functional

CC[C@H](C)C[C@H](C)CCCCCCCCC(=O)N[C@H]1C[C@@H](O)[C@@H](NCCN)NC(=O)[C@@H]2[C@@H](O)CCN2C(=O)[C@H]([C@H](O)CCN)NC(=O)[C@H]([C@H](O)[C@@H](O)c2ccc(O)cc2)NC(=O)[C@@H]2C[C@@H](O)CN2C(=O)[C@H]([C@@H](C)O)NC1=O [CASPOFUNGIN]
Time [1]: 7.45 h
Time [2]: >48 h
Time [3]: >48 h
Time [4]: 22.3 h
Time [5]: 1.99 h
Time [6]: >48 h
MIC [7]: 0.5 µg/mL (≈ 0.457 µM)
Time [8]: >48 h
Time [9]: 22.7 h
MIC [10]: 0.12 µg/mL (≈ 0.11 µM)
Activity [11]: inactive
MIC [12]: 0.5 µg/mL (≈ 0.457 µM)
Time [13]: 1.99 h
MIC [14]: 2 µg/mL (≈ 1.83 µM)
Time [15]: 25.64 h
Time [16]: >48 h
Time [17]: 24.75 h
Time [18]: >48 h
Time [19]: >48 h
MIC [20]: 0.5 µg/mL (≈ 0.457 µM)
Time [21]: 7.7 h
Time [22]: 25.82 h
Time [23]: >48 h
Time [24]: >48 h
Time [25]: 34.97 h
Time [26]: 3.42 h
Time [27]: 19.8 h
Time [28]: 8.61 h
Time [29]: >48 h
Time [30]: >48 h
Time [31]: 7.7 h
Time [32]: >48 h
Time [33]: 11.35 h
Time [34]: 25.58 h
MIC [35]: 2 µg/mL (≈ 1.83 µM)
Time [36]: >48 h
MIC [37]: 1 µg/mL (≈ 0.915 µM)
Time [38]: 38.46 h
Time [39]: 22.3 h
inhibition [40]: inactive
Time [41]: 12.82 h
Activity [42]: Active
Time [43]: 17.5 h
